Laboratory results from US12091425B2 (AMGEN INC., priority 2016, dated 2024).

Columns and labels:
[1] = test system: OPM-2 human multiple myeloma cell line; experiment: Cell Viability Assay (OPM-2 10 FBS); format: cell-based; settings: OPM-2 cells, 16 h incubation, CellTiter-Glo
Method in brief: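 ATP-based luminescence (CellTiter-Glo) measured after a 16 h compound treatment of OPM-2 cells seeded at 3000 cells/well in 10% FBS medium. IC50 values derived by 4-parameter logistic fitting of serial dilutions.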

[2] = molecular target: T1, Mcl-1/Bim interaction, recombinant human Mcl-1 (171-327) (Homo sapiens, UniProt Q07820); experiment: Cell free Mcl-1: Bim Affinity Assay (Mcl-1 HTRF); format: binding; settings: TR-FRET, 0.1 nM Mcl-1 (171-327), 0.05 nM biotin-Bim (51-76)
T1 construct: made in house
Method in brief: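 Read-out is time-resolved FRET after overnight incubation, using a biotin-labelled peptide from human Bim (51-76) as the binding partner; IC50 was derived from competition curves.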

T1 sequence (Q07820 171-327): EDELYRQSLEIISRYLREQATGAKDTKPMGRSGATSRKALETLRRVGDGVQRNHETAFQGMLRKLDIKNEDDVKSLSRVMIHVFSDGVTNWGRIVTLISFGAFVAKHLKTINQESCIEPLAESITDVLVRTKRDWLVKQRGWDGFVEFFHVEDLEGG

IC50 ([1]; Homo sapiens, OPM-2, 16 h)	IC50 [2]	Structure (SMILES)	IC50 [1]
298 nM	0.377 nM	CC[C@@H]1CC/C=C/[C@H](OCCC(=O)N(C)C)[C@@H]2CC[C@H]2CN2C[C@@]3(CCCc4cc(Cl)ccc43)COc3ccc(cc32)C(=O)NS1(=O)=O [Example 1010, 3-(((1S,3′R,6′R,7′S,8′E,12′R)-6-chloro-12′-ethyl-13′,13′-dioxido-15′-oxo-3,4-dihydro-2H-spiro[naphthalene-1,22′-[20]oxa[13]thia[1,14]diazatetracyclo[14.7.2.0^3,6.0^19,24]pentacosa [8,16,18,24]tetraen]-7′-yl)oxy)-N,N-dimethylpropanamide]	
524 nM	0.347 nM	CC[C@@H]1CC/C=C/[C@H](OCCC(=O)N2CCOCC2)[C@@H]2CC[C@H]2CN2C[C@@]3(CCCc4cc(Cl)ccc43)COc3ccc(cc32)C(=O)NS1(=O)=O [Example 1011, (1S,3′R,6′R,7′S,8′E,12′R)-6-chloro-12′-ethyl-7′-(3-(4-morpholinyl)-3-oxopropoxy)-3,4-dihydro-2H,15′H-spiro[naphthalene-1,22′-[20]oxa[13]thia[1,14]diazatetracyclo[14.7.2.0^3,6.0^19,24]pentacosa [8,16,18,24]tetraen]-15′-one 13′,13′-dioxide]	
329 nM	0.267 nM	C[C@@H]1C[C@@H](C)/C=C/[C@H](O)[C@@H]2CC[C@H]2CN2C[C@@]3(CCCc4cc(Cl)ccc43)COc3ccc(cc32)C(=O)NS1(=O)=O [Example 1014, (1S,3′R,6′R,7′S,8′E,10′R,12′R)-6-chloro-7′-hydroxy-10′,12′-dimethyl-3,4-dihydro-2H,15′H-spiro[naphthalene-1,22′-[20]oxa[13]thia[1,14]diazatetracyclo[14.7.2.0^3,6.0^19,24]pentacosa [8,16,18,24]tetraen]-15′-one 13′,13′-dioxide]	
235 nM	0.275 nM	C[C@@H]1/C=C/[C@H](O)[C@@H]2CC[C@H]2CN2C[C@@]3(CCCc4cc(Cl)ccc43)COc3ccc(cc32)C(=O)NS(=O)(=O)[C@H](C)C1 [Example 1015, (1S,3′R,6′R,7′S,8′E,10′S,12′R)-6-chloro-7′-hydroxy-10′,12′-dimethyl-3,4-dihydro-2H,15′H-spiro[naphthalene-1,22′-[20]oxa[13]thia[1,14]diazatetracyclo[14.7.2.0^3,6.0^19,24]pentacosa [8,16,18,24]tetraen]-15′-one 13′,13′-dioxide]	
291 nM	0.483 nM	CO[C@H]1/C=C/[C@H](C)C[C@@H](C)S(=O)(=O)NC(=O)c2ccc3c(c2)N(C[C@@H]2CC[C@H]21)C[C@@]1(CCCc2cc(Cl)ccc21)CO3 [Example 1016, (1S,3′R,6′R,7′S,8′E,10′R,12′R)-6-chloro-7′-methoxy-10′,12′-dimethyl-3,4-dihydro-2H,15′H-spiro[naphthalene-1,22′-[20]oxa[13]thia[1,14]diazatetracyclo[14.7.2.0^3,6.0^19,24]pentacosa [8,16,18,24]tetraen]-15′-one 13′,13′-dioxide]	
310 nM	0.339 nM	COCCO[C@H]1/C=C/[C@H](C)C[C@@H](C)S(=O)(=O)NC(=O)c2ccc3c(c2)N(C[C@@H]2CC[C@H]21)C[C@@]1(CCCc2cc(Cl)ccc21)CO3 [Example 1017, (1S,3′R,6′R,7′S,8′E,10′R,12′R)-6-chloro-7′-(2-methoxyethoxy)-10′,12′-dimethyl-3,4-dihydro-2H,15′H-spiro[naphthalene-1,22′-[20]oxa[13]thia[1,14]diazatetracyclo[14.7.2.0^3,6.0^19,24]pentacosa [8,16,18,24]tetraen]-15′-one 13′,13′-dioxide]	
285 nM	0.356 nM	C[C@@H]1C[C@@H](C)/C=C/[C@H](OCCN2CCOCC2)[C@@H]2CC[C@H]2CN2C[C@@]3(CCCc4cc(Cl)ccc43)COc3ccc(cc32)C(=O)NS1(=O)=O [Example 1018, (1S,3′R,6′R,7′S,8′E,10′R,12′R)-6-chloro-10′,12′-dimethyl-7′-(2-(4-morpholinyl)ethoxy)-3,4-dihydro-2H,15′H-spiro[naphthalene-1,22′-[20]oxa[13]thia[1,14]diazatetracyclo[14.7.2.0^3,6.0^19,24]pentacosa [8,16,18,24]tetraen]-15′-one 13′,13′-dioxide]	
475 nM	0.497 nM	CO[C@H]1/C=C/[C@@H](C)C[C@@H](C)S(=O)(=O)NC(=O)c2ccc3c(c2)N(C[C@@H]2CC[C@H]21)C[C@@]1(CCCc2cc(Cl)ccc21)CO3 [Example 1019, (1S,3′R,6′R,7′S,8′E,10′S,12′R)-6-chloro-7′-methoxy-10′,12′-dimethyl-3,4-dihydro-2H,15′H-spiro[naphthalene-1,22′-[20]oxa[13]thia[1,14]diazatetracyclo[14.7.2.0^3,6.0^19,24]pentacosa [8,16,18,24]tetraen]-15′-one 13′,13′-dioxide]	

Second part, the compound before the results:

Structure (SMILES)	IC50 ([1]; Homo sapiens, OPM-2, 16 h)	IC50 [2]	IC50 [1]
CC[C@@H]1CC/C=C/[C@H](OCC(=O)NCCN(C)C)[C@@H]2CC[C@H]2CN2C[C@@]3(CCCc4cc(Cl)ccc43)COc3ccc(cc32)C(=O)NS1(=O)=O [Example 995, 2-(((1S,3′R,6′R,7′S,8′E,12′R)-6-chloro-12′-ethyl-13′,13′-dioxido-15′-oxo-3,4-dihydro-2H-spiro[naphthalene-1,22′-[20]oxa[13]thia[1,14]diazatetracyclo[14.7.2.0^3,6.0^19,24]pentacosa [8,16,18,24]tetraen]-7′-yl)oxy)-N-(2-(dimethylamino)ethyl)acetamide]	1680 nM	0.872 nM	
CC[C@@H]1CC/C=C/[C@H](OCC(=O)NCCO)[C@@H]2CC[C@H]2CN2C[C@@]3(CCCc4cc(Cl)ccc43)COc3ccc(cc32)C(=O)NS1(=O)=O [Example 996, 2-(((1S,3′R,6′R,7′S,8′E,12′R)-6-chloro-12′-ethyl-13′,13′-dioxido-15′-oxo-3,4-dihydro-2H-spiro[naphthalene-1,22′-[20]oxa[13]thia[1,14]diazatetracyclo[14.7.2.0^3,6.0^19,24]pentacosa [8,16,18,24]tetraen]-7′-yl)oxy)-N-(2-hydroxyethyl)acetamide]	8190 nM	0.487 nM	
CC[C@@H]1CC/C=C/[C@H](OCC(=O)N2CCC2)[C@@H]2CC[C@H]2CN2C[C@@]3(CCCc4cc(Cl)ccc43)COc3ccc(cc32)C(=O)NS1(=O)=O [Example 997, (1S,3′R,6′R,7′S,8′E,12′R)-7′-(2-(1-azetidinyl)-2-oxoethoxy)-6-chloro-12′-ethyl-3,4-dihydro-2H,15′H-spiro[naphthalene-1,22′-[20]oxa[13]thia[1,14]diazatetracyclo[14.7.2.0^3,6.0^19,24]pentacosa [8,16,18,24]tetraen]-15′-one 13′,13′-dioxide]	962 nM	0.336 nM	
CC[C@@H]1CC/C=C/[C@H](OCC(=O)NCCOC)[C@@H]2CC[C@H]2CN2C[C@@]3(CCCc4cc(Cl)ccc43)COc3ccc(cc32)C(=O)NS1(=O)=O [Example 1001, 2-(((1S,3′R,6′R,7′S,8′E,12′R)-6-chloro-12′-ethyl-13′,13′-dioxido-15′-oxo-3,4-dihydro-2H-spiro[naphthalene-1,22′-[20]oxa[13]thia[1,14]diazatetracyclo[14.7.2.0^3,6.0^19,24]pentacosa [8,16,18,24]tetraen]-7′-yl)oxy)-N-(2-methoxyethyl)acetamide]	861 nM	0.573 nM	
CC[C@@H]1CC/C=C/[C@H](OCC(=O)NCCN2CCOCC2)[C@@H]2CC[C@H]2CN2C[C@@]3(CCCc4cc(Cl)ccc43)COc3ccc(cc32)C(=O)NS1(=O)=O [Example 1002, 2-(((1S,3′R,6′R,7′S,8′E,12′R)-6-chloro-12′-ethyl-13′,13′-dioxido-15′-oxo-3,4-dihydro-2H-spiro[naphthalene-1,22′-[20]oxa[13]thia[1,14]diazatetracyclo[14.7.2.0^3,6.0^19,24]pentacosa [8,16,18,24]tetraen]-7′-yl)oxy)-N-(2-(4-morpholinyl)ethyl)acetamide]	1220 nM	0.448 nM	
CCOC(=O)CO[C@H]1/C=C/CC[C@@H](CC)S(=O)(=O)NC(=O)c2ccc3c(c2)N(C[C@@H]2CC[C@H]21)C[C@@]1(CCCc2cc(Cl)ccc21)CO3 [Example 1003, ethyl (((1S,3′R,6′R,7′S,8′E,12′R)-6-chloro-12′-ethyl-13′,13′-dioxido-15′-oxo-3,4-dihydro-2H-spiro[naphthalene-1,22′-[20]oxa[13]thia[1,14]diazatetracyclo[14.7.2.0^3,6.0^19,24]pentacosa [8,16,18,24]tetraen]-7′-yl)oxy)acetate]	273 nM	0.844 nM	
CC[C@@H]1CC/C=C/[C@H](O[C@H](C)C(=O)O)[C@@H]2CC[C@H]2CN2C[C@@]3(CCCc4cc(Cl)ccc43)COc3ccc(cc32)C(=O)NS1(=O)=O [Example 1005]		0.157 nM	4110 nM
CC[C@@H]1CC/C=C/[C@H](OCCC(=O)O)[C@@H]2CC[C@H]2CN2C[C@@]3(CCCc4cc(Cl)ccc43)COc3ccc(cc32)C(=O)NS1(=O)=O [Example 1008, 3-(((1S,3′R,6′R,7′S,8′E,12′R)-6-chloro-12′-ethyl-13′,13′-dioxido-15′-oxo-3,4-dihydro-2H-spiro[naphthalene-1,22′-[20]oxa[13]thia[1,14]diazatetracyclo[14.7.2.0^3,6.0^19,24]pentacosa [8,16,18,24]tetraen]-7′-yl)oxy)propanoic Acid]	5590 nM	0.232 nM	
CCOC(=O)CCO[C@H]1/C=C/CC[C@@H](CC)S(=O)(=O)NC(=O)c2ccc3c(c2)N(C[C@@H]2CC[C@H]21)C[C@@]1(CCCc2cc(Cl)ccc21)CO3 [Example 1009, ethyl 3-(((1S,3′R,6′R,7′S,8′E,12′R)-6-chloro-12′-ethyl-13′,13′-dioxido-15′-oxo-3,4-dihydro-2H-spiro[naphthalene-1,22′-[20]oxa[13]thia[1,14]diazatetracyclo[14.7.2.0^3,6.0^19,24]pentacosa [8,16,18,24]tetraen]-7′-yl)oxy)propanoate]	702 nM	1.23 nM	
